Test results published in ChEMBL document CHEMBL1201862, “PubChem BioAssay data set” (2004).
Each block holds one molecule with its values, some of them ahead of it. Calls of active or inactive are those of the source.

How the values were obtained:
[1] = target: T1, Corticotropin-releasing factor receptor 2/Corticotropin-releasing factor-binding protein (Homo sapiens, UniProt P24387+Q13324); assay: Dose Response confirmation of uHTS hits for small molecule antagonists of the CRF-binding protein and CRF-R2 receptor complex.; assay type: functional; conditions: read-out: IC50_Mean
T1 sequence (Q13324 whole entry): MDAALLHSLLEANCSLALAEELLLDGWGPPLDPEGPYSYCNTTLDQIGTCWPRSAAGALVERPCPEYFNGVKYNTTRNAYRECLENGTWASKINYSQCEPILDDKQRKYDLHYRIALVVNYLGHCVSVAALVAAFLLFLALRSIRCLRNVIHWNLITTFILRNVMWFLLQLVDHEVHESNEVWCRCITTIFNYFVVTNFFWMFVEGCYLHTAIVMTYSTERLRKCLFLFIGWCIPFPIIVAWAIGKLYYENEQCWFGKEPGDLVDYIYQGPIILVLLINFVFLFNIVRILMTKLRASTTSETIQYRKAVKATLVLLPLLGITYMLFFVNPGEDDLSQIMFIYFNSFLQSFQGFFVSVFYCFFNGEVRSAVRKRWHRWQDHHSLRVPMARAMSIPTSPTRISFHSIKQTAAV
T1 sequence (P24387 whole entry): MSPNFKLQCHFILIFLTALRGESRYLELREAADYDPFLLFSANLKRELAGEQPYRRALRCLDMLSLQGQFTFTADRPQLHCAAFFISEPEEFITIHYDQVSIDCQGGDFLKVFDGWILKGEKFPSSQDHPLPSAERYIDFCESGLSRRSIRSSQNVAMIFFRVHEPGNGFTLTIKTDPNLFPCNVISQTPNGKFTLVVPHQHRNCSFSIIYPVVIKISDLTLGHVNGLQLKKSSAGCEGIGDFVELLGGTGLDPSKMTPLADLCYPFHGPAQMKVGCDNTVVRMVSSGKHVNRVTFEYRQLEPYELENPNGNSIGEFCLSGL

[2] = target: T1, Corticotropin-releasing factor receptor 2/Corticotropin-releasing factor-binding protein; assay: activators of CRF receptor 2 with binding protein – uHTS hits, confirmation (AID 602473); assay type: functional; conditions: read-out: EC50_Mean
[3] = general mammalian cell viability loss – inhibitor set, cherry-pick, set 2, cytotoxicity control for miR-122 modulator project, dose response (AID 720697); assay type: functional, cell-based
[4] = Luminescence Cell-Based Dose Confirmation HTS to Identify Inhibitors of Platelet Dense Granule Release. [Related pubchem assays: 1663 (Primary HTS), 1678 (Summary of Project)]; assay type: functional
[5] = target: Luciferin 4-monooxygenase (Photinus pyralis, UniProt P08659); assay: inhibition of purified Photinus pyralis luciferase – biochemical, luminescence, dose response (AID 1891)
[6] = target: T2, High affinity choline transporter 1 (Homo sapiens, UniProt Q9GZV3); assay: human choline transporter blockers, potency – cell-based, 5-point CRC, membrane potential dye, dose response (AID 504840); assay type: functional
T2 sequence (Q9GZV3 whole entry): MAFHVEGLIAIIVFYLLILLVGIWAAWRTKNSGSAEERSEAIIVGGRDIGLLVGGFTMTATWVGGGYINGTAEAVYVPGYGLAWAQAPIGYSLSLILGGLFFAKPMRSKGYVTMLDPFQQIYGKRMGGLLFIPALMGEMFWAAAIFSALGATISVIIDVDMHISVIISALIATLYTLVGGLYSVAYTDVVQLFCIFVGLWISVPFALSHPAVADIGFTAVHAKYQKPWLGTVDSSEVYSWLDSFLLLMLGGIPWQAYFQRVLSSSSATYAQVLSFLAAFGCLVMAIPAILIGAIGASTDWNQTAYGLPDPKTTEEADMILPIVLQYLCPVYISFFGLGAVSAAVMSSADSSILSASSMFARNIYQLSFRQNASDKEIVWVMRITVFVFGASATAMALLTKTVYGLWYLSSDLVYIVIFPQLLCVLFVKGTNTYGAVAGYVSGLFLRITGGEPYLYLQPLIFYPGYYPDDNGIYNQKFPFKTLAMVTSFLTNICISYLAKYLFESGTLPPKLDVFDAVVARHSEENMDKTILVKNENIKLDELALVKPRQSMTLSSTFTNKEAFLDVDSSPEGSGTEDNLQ

[7] = target: T3, Short transient receptor potential channel 4 (Mus musculus, UniProt Q9QUQ5); assay: block of DAMGO-driven TRPC4 calcium entry – cell-based, HEK293 TRPC4/mu-opioid, Fluo-4 calcium, dose response (AID 434942); assay type: functional;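 note: potency of inhibitors blocking the TRPC4 calcium response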
T3 sequence (Q9QUQ5 whole entry): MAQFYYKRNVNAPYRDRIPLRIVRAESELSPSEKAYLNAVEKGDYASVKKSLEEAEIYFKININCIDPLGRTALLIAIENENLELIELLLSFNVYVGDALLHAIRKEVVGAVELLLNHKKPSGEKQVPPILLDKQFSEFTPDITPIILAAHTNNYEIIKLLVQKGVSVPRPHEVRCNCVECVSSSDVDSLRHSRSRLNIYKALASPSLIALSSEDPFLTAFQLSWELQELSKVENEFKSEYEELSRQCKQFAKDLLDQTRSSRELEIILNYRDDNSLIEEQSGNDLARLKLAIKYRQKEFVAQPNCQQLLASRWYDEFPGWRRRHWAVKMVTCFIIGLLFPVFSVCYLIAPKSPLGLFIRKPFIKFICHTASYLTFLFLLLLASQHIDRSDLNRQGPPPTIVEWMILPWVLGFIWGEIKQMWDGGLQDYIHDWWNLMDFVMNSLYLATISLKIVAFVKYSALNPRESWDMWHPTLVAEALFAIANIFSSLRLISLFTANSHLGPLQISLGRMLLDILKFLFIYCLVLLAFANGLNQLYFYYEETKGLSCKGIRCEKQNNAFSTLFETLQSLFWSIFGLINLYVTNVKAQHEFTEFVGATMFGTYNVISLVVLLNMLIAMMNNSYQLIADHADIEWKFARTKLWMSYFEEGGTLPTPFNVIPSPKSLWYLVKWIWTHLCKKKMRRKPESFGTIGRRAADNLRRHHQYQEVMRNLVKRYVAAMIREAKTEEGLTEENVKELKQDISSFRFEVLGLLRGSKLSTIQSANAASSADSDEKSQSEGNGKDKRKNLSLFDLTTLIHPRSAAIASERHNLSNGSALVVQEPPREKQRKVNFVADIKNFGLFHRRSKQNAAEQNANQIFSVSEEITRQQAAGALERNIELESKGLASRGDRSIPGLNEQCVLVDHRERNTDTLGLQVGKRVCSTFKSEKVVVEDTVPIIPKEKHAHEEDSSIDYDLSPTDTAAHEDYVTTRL

[8] = target: Glyceraldehyde-3-phosphate dehydrogenase (Homo sapiens, UniProt P04406)
[9] = Luminescence Cell-Based Dose Retest to Confirm Inhibitors of Cancer Stem Cells. [Related pubchem assays (depositor defined):AID2717, AID2721]; assay type: functional; conditions: Homo sapiens
[10] = target: T4, Rac GTPase-activating protein 1 (Homo sapiens, UniProt Q9H0H5); assay: blockers of MgcRacGAP-driven Rac1 GTP hydrolysis – biochemical, ADP Hunter fluorescence, primary and confirmatory, confirmation (AID 624330); assay type: functional
T4 sequence (Q9H0H5 whole entry): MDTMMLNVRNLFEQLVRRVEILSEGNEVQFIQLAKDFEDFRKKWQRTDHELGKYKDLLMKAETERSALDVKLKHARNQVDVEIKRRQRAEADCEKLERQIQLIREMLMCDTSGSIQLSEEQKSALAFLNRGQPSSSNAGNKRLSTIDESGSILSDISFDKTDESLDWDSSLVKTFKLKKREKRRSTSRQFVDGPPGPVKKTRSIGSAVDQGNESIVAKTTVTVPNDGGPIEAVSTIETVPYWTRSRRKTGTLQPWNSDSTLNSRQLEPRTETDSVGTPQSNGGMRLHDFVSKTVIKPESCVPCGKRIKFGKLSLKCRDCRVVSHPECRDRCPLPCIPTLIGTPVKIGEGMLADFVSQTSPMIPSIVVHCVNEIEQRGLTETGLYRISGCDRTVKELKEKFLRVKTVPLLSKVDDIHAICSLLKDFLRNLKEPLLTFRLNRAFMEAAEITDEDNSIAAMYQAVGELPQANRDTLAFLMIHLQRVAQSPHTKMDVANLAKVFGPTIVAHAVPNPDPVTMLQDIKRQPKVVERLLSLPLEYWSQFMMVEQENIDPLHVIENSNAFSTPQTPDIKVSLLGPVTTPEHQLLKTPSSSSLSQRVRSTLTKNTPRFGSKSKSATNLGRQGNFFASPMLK

Chain of Glyceraldehyde-3-phosphate dehydrogenase (P04406 whole entry): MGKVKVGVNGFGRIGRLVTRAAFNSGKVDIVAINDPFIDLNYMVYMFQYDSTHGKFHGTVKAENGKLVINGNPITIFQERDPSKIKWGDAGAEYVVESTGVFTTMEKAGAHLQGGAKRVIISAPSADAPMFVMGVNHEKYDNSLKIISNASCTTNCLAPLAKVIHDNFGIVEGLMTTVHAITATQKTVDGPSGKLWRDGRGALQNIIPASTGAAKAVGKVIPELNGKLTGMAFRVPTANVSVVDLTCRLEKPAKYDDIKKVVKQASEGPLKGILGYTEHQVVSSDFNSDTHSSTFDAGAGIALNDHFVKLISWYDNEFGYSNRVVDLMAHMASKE
Chain of Luciferin 4-monooxygenase (P08659 whole entry): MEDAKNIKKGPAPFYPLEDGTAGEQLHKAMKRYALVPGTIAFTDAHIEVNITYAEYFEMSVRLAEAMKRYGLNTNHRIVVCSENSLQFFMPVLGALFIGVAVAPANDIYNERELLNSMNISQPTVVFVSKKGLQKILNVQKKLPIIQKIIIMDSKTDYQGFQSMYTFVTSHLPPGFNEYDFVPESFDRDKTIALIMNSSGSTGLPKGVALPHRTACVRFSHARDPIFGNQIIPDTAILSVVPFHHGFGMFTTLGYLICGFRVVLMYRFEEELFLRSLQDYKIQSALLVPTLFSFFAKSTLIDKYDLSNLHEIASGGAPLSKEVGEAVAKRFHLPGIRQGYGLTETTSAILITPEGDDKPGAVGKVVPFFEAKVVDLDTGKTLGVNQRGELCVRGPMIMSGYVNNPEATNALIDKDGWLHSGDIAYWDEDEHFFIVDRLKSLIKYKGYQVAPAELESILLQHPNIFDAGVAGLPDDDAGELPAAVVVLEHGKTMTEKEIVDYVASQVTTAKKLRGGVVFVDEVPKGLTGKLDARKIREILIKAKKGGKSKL

IC50 [1]: > 47.1 µM (inactive) | EC50 [2]: > 53 µM (inactive)
SMILES: COCCN1CC(=O)N(c2cccc(C)c2C)C(c2ccc(Cl)cc2)C1=O (configuration not stated)

SMILES: Cc1cccc(NC(=O)Nc2ccc3c(c2)C(=O)N(C)[C@H]2CC[C@H](CC(=O)O)O[C@H]2CO3)c1
AC50 [3]: 10.6 µM (active)

SMILES: COC(=O)C[C@@H]1CC[C@H]2[C@@H](COc3ccc(NC(=O)c4ccc(C(F)(F)F)cc4)cc3C(=O)N2C)O1
AC50 [3]: 10 µM (active)

SMILES: COc1cc2c(cc1OC)-c1cc(NC3CCCCCC3)nc(=O)n1CC2
EC50 [4]: 2.94 µM (active) | EC50 [5]: > 112 µM (not active) | IC50 [6]: 12.9 µM (active)

IC50 [6]: 13.8 µM (active)
SMILES: COc1cc2ccccc2cc1C(=O)Nc1ccc(S(=O)(=O)Nc2cc(C)on2)cc1

EC50 [7]: 4.73 µM (active)
SMILES: CCOc1ccc2ccccc2c1CNCCc1ccc(S(N)(=O)=O)cc1

IC50 [8]: > 50 µM (inconclusive)
SMILES: Cc1ccc(N2C(=O)C(Cl)=C(N3CCN(Cc4ccc5c(c4)OCO5)CC3)C2=O)cc1

SMILES: O=C(CN1CCCC1)Nc1ccc(Cl)cc1C(=O)c1ccccc1
AC50 [9]: 16.1 µM (active) | EC50 [7]: 1.5 µM (active)

IC50 [10]: 7.86 µM (active) | IC50 [6]: 13.2 µM (active)
SMILES: COc1cccc(CNc2ccc(N3CCC(C)CC3)cc2)c1OC

IC50 [8]: > 50 µM (inconclusive)
SMILES: O=C1C(Cl)=C(N2CCN(c3ccccc3)CC2)C(=O)N1c1ccnc(Cl)c1

EC50 [7]: 2.66 µM (active)
SMILES: CCN(CC)c1nc2ccccc2c(N)c1-c1ccccc1

IC50 [6]: 15.6 µM (active)
SMILES: CCn1cc(/C=C(\NC(=O)c2ccccc2F)C(=O)N2CCOCC2)c2ccccc21
